Test results from patent publication US6521252B1, “Transfecting compounds which are sensitive to reducing conditions, pharmaceutical compositions containing them and their applications” (Aventis Pharma S.A., priority 1998, dated 2003).

What was measured:
HepG2 cells [1] = test: Toxicity of cytofectant mixtures, protein concentrations in cell lysates, HepG2 cells; conditions: for toxicity (in words): up to 160 μM of cationic lipid
Description: (§4) The cells are cultured under appropriate conditions in 24-well microplates (2 cm^2/well) and are transfected while they are in the exponential growth phase and at 50-70% confluence.
(§5) The cells are washed with twice 0.5 cm^3 of medium free of serum proteins and grown again either in serum-free medium (transfection in the absence of serum), or in complete medium (transfection in the presence of serum) 0.05 cm^3 of cytofectant mixture (0.5 μg DNA/well) are added to the cells (3 wells/condition DNA vector). When the cells are transfected in the absence of serum, the growth medium is supplemented 2 hours after transfection with the appropriate quantity of serum.
(§6) The toxicity of the cytofectant mixtures is estimated by a measurement of the protein concentrations in the cell lysates.

HepG2 cells [2] = test: In vitro transfection efficiency, luciferase expression, HepG2 cells; type: cell-based; conditions: for inhibition of transfection due to the presence of serum proteins (in words): presence vs absence of serum
Description: (§1) The plasmid used is described in Patent WO 97/10343. This construct pCOR_pXL2774 comprises the gene encoding luciferase under the human cytomegalovirus very early gene promoter [hCMV-IE].
(§2) The nucleic acid solutions are diluted to 20 μg/ml in physiological saline (0.15 M NaCl).
(§3) The products described in the invention are dissolved in water at a concentration varying from 40 to 160 μmol and mixed volume for volume with the DNA solution. The final saline concentration is 75 mmol.

HeLa cells [3] = test: Toxicity of cytofectant mixtures, protein concentrations in cell lysates, HeLa cells; type: cell-based; conditions: up to 160 μM of cationic lipid
Description: as §4, §5, §6

HeLa cells [4] = test: In vitro transfection efficiency, luciferase expression, HeLa cells; type: cell-based; conditions: for inhibition of transfection due to the presence of serum proteins (in words): presence vs absence of serum
Description: as §1, §2, §3

[5] = Detergent action: solubilization of liposomes EPC/EPA (10:1) measured by turbidity; conditions: turbidity by spectrophotometer; compared with Triton X-100 (100% solubilization)
From the text: For that, an in vitro model is used which represents the biological membranes, namely liposomes EPC/EPA (egg phosphatidylcholine/egg phosphatidic acid, 10:1).
These liposomes are formed by dissolving the various constituents in chloroform, and then evaporating the said chloroform with the aid of a rotary evaporator. The lipid film obtained is redispersed in water, and then the liposomes are formed by sonication and heating.
The evaluation of the detergent action of the product added to the liposomes is made by measuring the turbidity with the aid of a spectrophotometer.

[6] = HepG2 cells, absence of serum proteins
[7] = HeLa cells, absence of serum proteins

| Compound | toxicity (in words) (HepG2 cells [1]) | expression of the transgene compared with reference cationic lipid REF (HepG2 cells [2]; [6]) | inhibition of transfection due to the presence of serum proteins (in words) (HepG2 cells [2]; HepG2 cells) | toxicity (in words) (HeLa cells [3]) | inhibition of transfection due to the presence of serum proteins (in words) (HeLa cells [4]; HeLa cells) | further results |
| --- | --- | --- | --- | --- | --- | --- |
| CCCCCCCCCCCCCCCCCCNC(=O)C(CSSCC(NC(=O)CNCCCNCCCCNCCCN)C(=O)NCCCCCCCCCCCCCCCCCC)NC(=O)CNCCCNCCCCNCCCN (stereo not shown) [compound (VI), [NH2(CH2)3NH (CH2)4NH (CH2)3NHCH2CO—CyNH (CH2)17CH3]2] |  |  |  |  |  | survival (HepG2 cells [1]; transfection in the absence of serum proteins, cationic lipid dose 160 μM): 80%; transgene expression in comparison with reference cationic lipid REF (HepG2 cells [2]; HepG2 cells, absence of serum (FIG. 3)): 4 times |
| NH2 (CH2)3NH(CH2)4NH(CH)3NHCH2COCys-[S—S—(CH2)17CH3]—NH (CH2)17CH3 [compound (II)] | no significant toxicity | up to 3 fold | no inhibitory effect |  |  | improvement of transfection compared with reference cationic lipid REF (HepG2 cells [2]; HepG2 cells, presence of serum proteins): up to 40 fold |
| NH2(CH2)3NH(CH2)4NH(CH2)3NHCH2COCyS-[S—S-Cholesterol]—NH(CH2)17CH3 [compound (V)] | no significant toxicity |  | no inhibition could be observed | no significant toxicity | no inhibition could be observed | gain in expression of the transgene, cholesterol instead of an alkyl chain (in words) (HeLa cells [4]; HeLa cells (FIG. 9)): very significant gain; gain in expression of the transgene, cholesterol instead of an alkyl chain (in words) (HepG2 cells [2]; HepG2 cells (FIG. 9)): very significant gain |
| NH2(CH2)3NH(CH2)4NH(CH2)3NHCH2COCys-[S—S—(CH2)4CH3]—N[(CH2)17CH3]2 [compound (I)] | no significant toxicity |  | no significant inhibition | no significant toxicity | no significant inhibition | transfection results compared with reference cationic lipid REF (in words) (HeLa cells [4]; [7]): same order of magnitude; transfection results compared with reference cationic lipid REF (in words) (HepG2 cells [2]; [6]): same order of magnitude |
| NH2(CH2)3NH(CH2)4NH(CH2)3NHCH2COCys-[S—S—(CH2)11CH3]—N[(CH2)17CH3]2 [compound (IV)] | no significant toxicity | about 9 fold | no significant inhibition | no significant toxicity | no significant inhibition | expression of the transgene compared with reference cationic lipid REF (HeLa cells [4]; [7]): about 2 fold |
| Triton X-100 |  |  |  |  |  | solubilization of the liposomes [5]: 100% |
